This is an account of results in publication PMC5706701, “Development of a homogenous high-throughput assay for inositol hexakisphosphate kinase 1 activity” (PLoS ONE, 2017).

For this test, the target named is T1, Human IP6K1 (Homo sapiens, UniProt Q92551).
T1 construct: GST (N, cleaved yes); made in house; host or cells: C43 E. coli, pGEX-6P-2
Briefly: IP6K1 high-throughput screen of the Sigma LOPAC (ADP-Glo Max, single point).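 Also: final compound concentration 10µM in 5% DMSO.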 The class given is biochemical.

Setting [1] is: LOPAC single-point screen, ADP-Glo Max luminescence raw signal per well.
Where [2] appears, read: LOPAC single-point screen, Z-score from plate average and StDev.
Setting [3] is: Sigma LOPAC single-point screen, ADP-Glo Max raw signal per well.
Where [4] appears, read: Sigma LOPAC single-point screen, Z-score from plate average and StDev.
[5] abbreviates: LOPAC single-point screen, Z-score relative to plate average and StDev.
Where [6] appears, read: LOPAC single-point screen, ADP-Glo Max raw signal per well.
The mark [7] stands for this setting: LOPAC single-point screen, Z-score against plate average and StDev.
The mark [8] stands for this setting: LOPAC single-point screen, Z-score from raw signal with plate average and StDev.

The structures appear in SMILES notation. Structures can show the parent of a compound that is named as a salt.

T1 sequence (Q92551 whole entry): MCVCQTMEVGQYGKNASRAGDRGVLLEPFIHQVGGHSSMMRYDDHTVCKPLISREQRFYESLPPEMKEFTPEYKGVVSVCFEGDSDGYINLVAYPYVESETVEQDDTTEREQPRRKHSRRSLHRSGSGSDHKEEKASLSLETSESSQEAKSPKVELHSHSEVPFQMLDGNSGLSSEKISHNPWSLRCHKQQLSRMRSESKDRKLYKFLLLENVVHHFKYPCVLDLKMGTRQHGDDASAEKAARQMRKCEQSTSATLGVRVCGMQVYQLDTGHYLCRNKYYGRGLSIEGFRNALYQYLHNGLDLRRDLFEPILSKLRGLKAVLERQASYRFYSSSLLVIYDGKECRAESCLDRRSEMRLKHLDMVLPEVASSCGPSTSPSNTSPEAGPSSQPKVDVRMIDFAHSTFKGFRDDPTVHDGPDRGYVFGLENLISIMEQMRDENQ

In the case of `COC(=O)C(N)Cc1ccc(Cl)cc1.Cl` (racemic), under setting [1], the “Raw Signal” value came to 67025. Besides, the Z-score under setting [2] is recorded as 1.605. For the molecule `CN[C@H](CC(C)C)C(=O)N[C@H]1C(=O)N[C@@H](CC(N)=O)C(=O)N[C@H]2C(=O)N[C@H]3C(=O)N[C@H](C(=O)N[C@H](C(=O)O)c4cc(O)cc(O)c4-c4cc3ccc4O)[C@H](O)c3ccc(c(Cl)c3)Oc3cc2cc(c3O[C@@H]2O[C@H](CO)[C@@H](O)[C@H](O)[C@H]2O[C@H]2C[C@](C)(N)[C@H](O)[C@H](C)O2)Oc2ccc(cc2Cl)[C@H]1O.Cl`, the “Raw Signal” value under setting [3] is recorded as 61643. Further, the Z-score under setting [4] came to 1.0917.

In the case of `CC(C)[C@@]1(NC(=O)[C@@H]2C=C3c4cccc5[nH]cc(c45)C[C@H]3N(C)C2)O[C@@]2(O)[C@@H]3CCCN3C(=O)[C@H](Cc3ccccc3)N2C1=O` [Ergocristine], the “Raw Signal” value under setting [1] amounted to 51436. Moreover, under setting [5], the Z-score was -0.7577. As for `CN1[C@@H](CC(=O)c2ccccc2)CCC[C@H]1C[C@H](O)c1ccccc1.Cl` [alpha-Lobeline hydrochloride], the “Raw Signal” value under setting [6] amounted to 53929. Under setting [7], the Z-score was -0.07805. In the case of `O=C(O)[C@H]1CCCN[C@H]1C(=O)O` (racemic), the “Raw Signal” value under setting [3] was determined as 60739. Under setting [4], this molecule displayed a Z-score of 0.9161. Turning to `COc1ccc(/C=C/C(=O)Nc2ccccc2C(=O)O)cc1OC` [Tranilast], the “Raw Signal” value under setting [1] worked out at 68948. The molecule also had a Z-score under setting [2] of 2.511.

With `NC(CP(=O)(O)O)C(=O)O` (racemic) [(±)-2-Amino-3-phosphonopropionic acid], the “Raw Signal” value under setting [1] came out at 53469. Also, the Z-score under setting [5] is -0.7827.

As to `COc1cc(C(O)CO)ccc1OS(=O)(=O)[O-].[K+]` (centres unmarked) [MHPG sulfate potassium], the “Raw Signal” value under setting [6] is on record as 56093. The same molecule returned a Z-score under setting [7] of 0.1881.

Take `Cn1c(=O)c2[nH]c(C3CCCC3)nc2n(C)c1=O` [8-Cyclopentyl-1,3-dimethylxanthine]: under setting [3], the “Raw Signal” value amounted to 58283. This molecule showed a Z-score under setting [4] of 0.6328. For the molecule `O=C1N(c2ccccc2)c2ccccc2C1(Cc1ccncc1)Cc1ccncc1` [Linopirdine], the “Raw Signal” value under setting [6] turned out to be 55241. The Z-score under setting [7] is reported as 0.1424. As for `CN1[C@@H]2CC[C@H]1C[C@@H](OC(c1ccccc1)c1ccccc1N)C2` (some centres unmarked) [Aminobenztropine], the “Raw Signal” value under setting [6] is reported as 58792. Under setting [7], the Z-score worked out at 0.1548.

Take `Nc1nc2ccc(OC(F)(F)F)cc2s1` [Riluzole]: the “Raw Signal” value under setting [1] was found to be 52217. Further, under setting [5], the Z-score is given as -0.7396. In the case of `CCN1C(=O)C=CC1=O` [N-Ethylmaleimide], the “Raw Signal” value under setting [6] came to 55064. Moreover, the Z-score under setting [7] is reported as -0.02093. Regarding `C[N+](C)(C)CC#CCN1CCCC1=O` [Oxotremorine methiodide], the “Raw Signal” value under setting [1] turned out to be 63016. The Z-score under setting [2] turned out to be 1.4488. For `N[C@@H](Cc1ccc(F)cc1)C(=O)O` [p-Fluoro-L-phenylalanine], under setting [6], the “Raw Signal” value is 55466. In addition, the Z-score under setting [7] turned out to be 0.06072. For `CCC1(c2ccc(N)cc2)CCC(=O)NC1=O` (racemic) [(±)-p-Aminoglutethimide], the “Raw Signal” value under setting [6] came out at 58613. Also, the Z-score under setting [7] stood at 0.1233. Take `CC(CCc1ccccc1)NC(C)C(O)c1ccc(O)cc1` (centres unmarked) [Nylidrin hydrochloride]: the “Raw Signal” value under setting [6] is listed as 56232. Also, the Z-score under setting [7] was 0.3089. For `CC(=O)N1CCN(c2ccc(OCC3COC(Cn4ccnc4)(c4ccc(Cl)cc4Cl)O3)cc2)CC1` (centres unmarked) [Ketoconazole], the “Raw Signal” value under setting [1] was 49591. Also, the Z-score under setting [5] is given as -0.8069. Turning to `C/C=C(/C)C(=O)O[C@H]1C(C)=C2[C@H]([C@@H]1OC(=O)CCCCCCC)[C@@](C)(OC(C)=O)C[C@H](OC(=O)CCC)[C@@]1(O)[C@H]2OC(=O)[C@@]1(C)O` [Thapsigargin], under setting [6], the “Raw Signal” value is given as 56574. The molecule further returned a Z-score under setting [7] of 0.1069. As to `N#C/C(=C\c1ccc(O)c(O)c1)C(=O)NCCCc1ccccc1` [Tyrphostin AG 555], the “Raw Signal” value under setting [6] is recorded as 55783. In addition, the Z-score under setting [7] is -0.04678.

For the molecule `OCC1OC(n2cnc3ccccc32)C(O)C1O` [D-ribofuranosylbenzimidazole], under setting [1], the “Raw Signal” value is recorded as 49673. Under setting [5], the Z-score is -1.116.

As for `CN1CCN(CCCN2c3ccccc3Sc3ccc(Cl)cc32)CC1` [Prochlorperazine dimaleate], the “Raw Signal” value under setting [3] is 58817. In addition, the Z-score under setting [4] came out at 0.5427. As to `C=CC[C@H](N)C(=O)O` [L-allylglycine], under setting [6], the “Raw Signal” value is reported as 58984. Under setting [7], the Z-score worked out at 0.1886. Consider `COc1cc(CC(=O)O)ccc1O` [4-Hydroxy-3-methoxyphenylacetic acid], for which the “Raw Signal” value under setting [3] was determined as 58602. Further, the Z-score under setting [4] is on record as 0.6976.

Take `COc1cc([C@@H]2c3cc4c(cc3[C@H](O)[C@H]3COC(=O)[C@H]23)OCO4)cc(OC)c1OC` [Podophyllotoxin]: the “Raw Signal” value under setting [1] is reported as 50929. Further, the Z-score under setting [5] is on record as -0.5821. In the case of `CC(C)C[C@H](N)CSSC[C@@H](N)CC(C)C.Cl.Cl` [L-Leucinethiol, oxidized dihydrochloride], the “Raw Signal” value under setting [6] is recorded as 55535. Under setting [7], the Z-score amounted to 0.1918. As for `O=C(O)CCC(=O)N1CCC[C@H]1C(=O)O` [N-Succinyl-L-proline], under setting [6], the “Raw Signal” value is reported as 55499. Under setting [8], the Z-score is -0.102. For the molecule `NCCCC(=O)O` [GABA], the “Raw Signal” value under setting [3] stood at 63549. Under setting [4], this molecule returned a Z-score of 0.9926. For the molecule `C#CCN(C)CCCOc1ccc(Cl)cc1Cl` [Clorgyline hydrochloride], the “Raw Signal” value under setting [1] was found to be 50699. For the same molecule, the Z-score under setting [5] was -0.6208. As for `CC(C)(C)NCC(O)c1ccc(O)c(CO)c1` (centres unmarked) [Salbutamol], the Z-score under setting [8] is listed as -0.2712. Turning to `CCN1CCC[C@H]1CNC(=O)c1c(OC)ccc(I)c1O` [S(-)-IBZM], the “Raw Signal” value under setting [1] came out at 51122. For the same molecule, the Z-score under setting [5] was -0.5497. For `O=c1ccn(C2OC(COP(=O)(O)OP(=O)([O-])O)C(O)C2O)c(=O)[nH]1.[Na+]` (centres unmarked) [Uridine 5 -diphosphate sodium], the “Raw Signal” value under setting [3] is 58265. Besides, the Z-score under setting [4] is 0.4354. Take `Nc1ncnc2c1ncn2[C@@H]1O[C@H](CO)[C@@H](O)[C@H]1O` [Adenosine]: the “Raw Signal” value under setting [6] was found to be 56689. Moreover, the Z-score under setting [8] is given as -0.2156.

Regarding `NC(=O)CN1CCCC1=O` [Piracetam], the “Raw Signal” value under setting [3] is reported as 58233. Under setting [4], this molecule returned a Z-score of 0.6451.

For `Cl.NCC(O)c1cc(O)c(O)cc1F` (centres unmarked) [6-Fluoronorepinephrine hydrochloride], under setting [1], the “Raw Signal” value came to 54023. Under setting [5], the Z-score was -0.6852. With `CC(C)[N+](C)(CCOC(=O)C1c2ccccc2Oc2ccccc21)C(C)C` [Propantheline bromide], the “Raw Signal” value under setting [3] worked out at 58434. The Z-score under setting [4] came to 0.4683. Take `Cl.NCCS` [Cysteamine hydrochloride]: the “Raw Signal” value under setting [1] is 49886. The Z-score under setting [5] was -0.7574. Consider `Cl.c1ccc(CN2CCC3(CCCc4ccccc43)CC2)cc1` [L-687,384 hydrochloride], for which, under setting [3], the “Raw Signal” value was determined as 58533. Under setting [4], this molecule came in with a Z-score of 0.6955. Take `CN1[C@@H]2CC[C@H]1C[C@@H](OC(=O)[C@H](CO)c1ccccc1)C2` [L-Hyoscyamine]: the “Raw Signal” value under setting [1] was 63094. This molecule gave a Z-score under setting [2] of 1.61.
